For 7 molecules, GI50 and TGI results are on record in PubChem BioAssay (NCI).

Structures are written as SMILES.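 Step 1: Grow cells in 96-well plates. Step 2: Expose to compound for 48 hours at 5 concentrations. Step 3: Interpolate endpoints linearly; if unreached, use highest concentration. GI50 is the concentration that inhibits growth by half. TGI marks complete inhibition of growth.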

Test systems include SF-295 CNS; ACHN renal; SN12C renal; LOX IMVI melanoma; SK-MEL-2 melanoma; SK-OV-3 ovarian; A498 renal; OVCAR-5 ovarian; COLO 205 colon; HOP-62 NSCLC.
Assay in all cases: inhibition of tumour cell growth, NCI panel, 48 h

With `CCc1nc(N)nc(N)c1C#CC(C)c1cc(-c2ccnc(C)c2)c2oc(C)nc2c1` (stereo not given), the GI50 with SF-295 CNS was < 0.01 µM; with ACHN renal, < 0.01 µM; in the test with SN12C renal, < 0.0145 µM; in the test on LOX IMVI melanoma, < 0.01 µM; in the test on SK-MEL-2 melanoma it was 1.9 µM; with SK-OV-3 ovarian, 0.113 µM. Besides, the GI50 was 0.117 µM in the test with A498 renal, < 0.0103 µM with OVCAR-5 ovarian, 0.0246 µM in the test on COLO 205 colon and < 0.01 µM with HOP-62 NSCLC. In addition, the TGI in the test on SF-295 CNS turned out to be 6.39 µM; in the test on ACHN renal, 11 µM; in the test on SN12C renal, 11.4 µM; in the test with LOX IMVI melanoma, 2.3 µM; in the test on SK-MEL-2 melanoma, 10.6 µM; with SK-OV-3 ovarian, 8.53 µM. The TGI was 4.89 µM in the test on A498 renal, 13.6 µM in the test with OVCAR-5 ovarian, 6.9 µM in the test with COLO 205 colon and 5.92 µM in the test with HOP-62 NSCLC.

On to `O=C1OC(OC/C(Br)=C(/Br)COC2OC(=O)C(Cl)=C2Cl)C(Cl)=C1Cl` (stereo not given), for which the TGI was 34.2 µM in the test on SF-295 CNS; 24.8 µM in the test on ACHN renal; 22.6 µM in the test with SN12C renal; 8.36 µM in the test with LOX IMVI melanoma; 44.8 µM in the test with SK-MEL-2 melanoma; > 55.8 µM in the test with SK-OV-3 ovarian. Besides, the TGI was 38 µM in the test with A498 renal, 33 µM in the test with OVCAR-5 ovarian, 10.4 µM in the test with COLO 205 colon and 28.8 µM in the test on HOP-62 NSCLC.

In the case of `CCOC(=O)/C=C1\Oc2ccccc2C1(C)O` (stereo not given), the TGI with SF-295 CNS, in the test with ACHN renal, with SN12C renal, with LOX IMVI melanoma, in the test on SK-MEL-2 melanoma and in the test with SK-OV-3 ovarian was > 100 µM throughout. Also, the TGI in the test on A498 renal, in the test with OVCAR-5 ovarian, in the test on COLO 205 colon and in the test with HOP-62 NSCLC was > 100 µM throughout.

As for `c1ccc(/C(=N\Nc2ccc3ccccc3n2)c2ccccn2)cc1`, the GI50 with SF-295 CNS was 0.211 µM; in the test with ACHN renal, 0.49 µM; in the test on SN12C renal, 0.507 µM; with LOX IMVI melanoma it was 0.457 µM; in the test on SK-MEL-2 melanoma it was 0.604 µM; with SK-OV-3 ovarian, 0.612 µM. The GI50 is 2.92 µM with A498 renal, 0.81 µM with OVCAR-5 ovarian, 0.407 µM in the test with COLO 205 colon and 1.21 µM in the test with HOP-62 NSCLC. Besides, the TGI with SF-295 CNS amounted to 2.13 µM; in the test with ACHN renal it was 8.78 µM; in the test on SN12C renal it was 25.6 µM; in the test on LOX IMVI melanoma, 5.61 µM; with SK-MEL-2 melanoma it was 7.4 µM; with SK-OV-3 ovarian it was 18 µM. In addition, the TGI came out at 80.4 µM with A498 renal, 43 µM with OVCAR-5 ovarian, 5.08 µM in the test on COLO 205 colon and 15.9 µM in the test on HOP-62 NSCLC.

For the molecule `COC1C(O)C(C)OC(O[C@@H]2C[C@H]3CC[C@@H]4[C@H](CC[C@]5(C)[C@@H](C6=CC(=O)OC6)CC[C@]45O)[C@@]3(C)[C@H](O)C2)C1O` (stereo not given in full), the TGI was found to be 0.321 µM in the test on SF-295 CNS; 0.615 µM with ACHN renal; 0.0591 µM with SN12C renal; 0.233 µM with LOX IMVI melanoma; 1.7 µM with SK-MEL-2 melanoma; 0.347 µM in the test with SK-OV-3 ovarian. Besides, the TGI in the test on A498 renal came to 0.0871 µM; in the test with OVCAR-5 ovarian, 0.365 µM; in the test with COLO 205 colon, 1.05 µM; with HOP-62 NSCLC it was 0.0362 µM.

Regarding `C=C1C(=O)O[C@H]2[C@H]1CC/C(CNC(=O)/C=C/c1ccc(Cl)cc1Cl)=C\CC[C@@]1(C)O[C@@H]21`, the GI50 with SF-295 CNS was 1.62 µM; with ACHN renal it was 1.13 µM; in the test on SN12C renal, 1.73 µM; in the test on LOX IMVI melanoma, 0.516 µM; with SK-MEL-2 melanoma it was 1.55 µM; in the test on SK-OV-3 ovarian it was 3.33 µM. The GI50 in the test with A498 renal was 1.47 µM; in the test with OVCAR-5 ovarian, 1.85 µM; in the test on COLO 205 colon, 1.14 µM; in the test on HOP-62 NSCLC it was 1.74 µM. The TGI in the test with SF-295 CNS came to 3.83 µM; in the test on ACHN renal, 2.48 µM; in the test with SN12C renal, 4.08 µM; in the test on LOX IMVI melanoma, 1.81 µM; with SK-MEL-2 melanoma, 3.63 µM; in the test on SK-OV-3 ovarian it was 13 µM. Moreover, the TGI was determined as 3.87 µM in the test on A498 renal, 4.1 µM in the test with OVCAR-5 ovarian, 2.95 µM in the test with COLO 205 colon and 4.06 µM in the test with HOP-62 NSCLC.

For the molecule `COc1ccc2c(c1OC)C(=O)O[C@@H]2[C@H]1c2c(c(Br)c3c(c2OC)OCO3)CCN1C`, the GI50 in the test with SF-295 CNS is 10.8 µM; with ACHN renal it was > 100 µM; in the test with SN12C renal it was > 100 µM; with LOX IMVI melanoma, 6 µM; in the test on SK-MEL-2 melanoma, > 100 µM; with SK-OV-3 ovarian, > 100 µM. For the same molecule, the GI50 in the test with A498 renal was 27.6 µM; in the test on OVCAR-5 ovarian, > 100 µM; with COLO 205 colon it was 27.1 µM; in the test on HOP-62 NSCLC, 6.47 µM. Moreover, the TGI with SF-295 CNS is 47.4 µM; with ACHN renal it was > 100 µM; in the test with SN12C renal, > 100 µM; with LOX IMVI melanoma, > 100 µM; in the test on SK-MEL-2 melanoma it was > 100 µM; in the test with SK-OV-3 ovarian it was > 100 µM. For the same molecule, the TGI was > 100 µM in the test on A498 renal, > 100 µM in the test on OVCAR-5 ovarian, > 100 µM with COLO 205 colon and 91.2 µM in the test with HOP-62 NSCLC.
